Measurements as given in patent US20220008402A1, “INCREASED E-CADHERIN EXPRESSION OR ACTIVITY FOR THE TREATMENT OF INFLAMMATORY DISEASES” (The Cleveland Clinic Foundation, priority 2020, published 2022).
Entries after “also recorded” stand apart in the source; their conditions may differ.

Assays:
Type in all cases: cell-based, human
T84 cell monolayers [1] = experiment: Epithelial barrier permeability in vitro (TEER, FITC-dextran flux), steady state; settings: 10 μM
Procedure: (§1) FIG. 1: E-cadherin-enhancing drugs decrease ionic permeability of model colonic epithelial cell monolayers. Confluent T84 (A), HT-29cF8 (B) and SK-0015 (C) cell monolayers were treated for indicated times with either vehicle, E-cadherin upregulator (ECU, 10 μM), or ML327 (10 μM). Transepithelial electrical resistance (TEER) of the cell monolayers was measured before and during the drug treatment. Data is presented as mean ±SE (n=3); *P<0.05.
(§2) FIG. 2: E-cadherin-enhancing drugs decrease colonic epithelial permeability to large molecules. Confluent T84 (A), HT-29cF8 (B) and SK-C015 (C) cell monolayers were treated with either vehicle, ECU, or ML327, as described in the FIG. 1 legend. Trans-monolayer flux of FITC-dextran was determined at the end of the drug treatment. Data is presented as mean ±SE (n=3); **P<0.05 ***P<0.01.
(§3) Transepithelial electrical resistance (TEER) of cultured T84, HT-29 and SK-C015 intestinal epithelial cell monolayers was measured using an EVOMX voltohmmeter (World Precision Instruments, Sarasota, Fla.). Cells were plated on collagen-coated transwell filters (pore size 3 μm, Thermo-Fisher). The resistance of cell-free collagen-coated filters was subtracted from each experimental point. An in vitro dextran flux assay was performed by a following commonly-used protocol. Intestinal epithelial cell monolayers growing on transwell filters were apically exposed to 1 mg/ml of FITC-labeled dextran (4,000 Da) in HEPES-buffered Hanks balanced salt solution (HBSS). After 120 min of incubation, HBSS samples were collected from the lower chamber, and FITC fluorescence intensity was measured using a Victor^3 V plate reader (Perkin Elmer, Waltham, Mass.) with excitation and emission wavelengths 485 and 544 nm, respectively. After subtracting the fluorescence of dextran-free HBSS the amount of FITC dextran translocated across the epithelial cell monolayer was calculated based on a calibration curve using Prism 5 software (GraphPad, La Jolla, Calif.).
(§4) One set of experiments examined the effects of E-cadherin upregulator (ECU) and ML327 on the barrier properties of normal model intestinal epithelial cell monolayers. Three different human colonic epithelial cell lines, namely, T84, SK-0015 and HT-29 cF8 cells, were used. Cells were plated on collagen-coated transwell filters and allowed to reach confluency and differentiate for 5-7 days after plating. Thereafter, cell monolayers were exposed to either ECU (10 μM), ML327 (10 μM) or vehicle (DMSO). Transepithelial electrical resistance (TEER) was measured before and at different times after addition of E-cadherin-enhancing drugs. A transepithelial flux of FITC-dextran was examined at the end of the drug exposure to evaluate epithelial permeability to large uncharged molecules.

SK-0015 cell monolayers = experiment: as above; settings: 10 μM
Procedure: as §1, §2, §3, §4

[2] = test system: HT-29 cF8 cell monolayers; experiment: as above; settings: 10 μM
Procedure: as §1, §2, §3, §4

T84 cell monolayers [3] = experiment: Immunoblotting of signaling molecules after multiple wounding; settings: 10 μM pretreatment 24 h; lysates 12 and 24 h post-wounding
Procedure: Confluent T84 cell monolayers were pretreated with either vehicle, ECU (10 μM), or ML327 (10 μM), for 24 h, and were subjected to multiple wounding. Total cell lysates were collected at 12 and 24 h post-wounding, and the expression of different signaling molecules was determined by immunoblotting. Representative immunoblots (A) and densitometric quantification of protein band intensities from three independent experiments (B) are shown. Data are presented as a mean ±SE (n=3); *p<0.05; **p<0.01.
To prepare total cell lysates, epithelial cell monolayers were scraped and homogenized using a Dounce homogenizer in RIPA buffer (20 mM Tris, 50 mM NaCl, 2 mM EDTA, 2 mM EGTA, 1% sodium deoxycholate, 1% Triton X-100 (TX-100), and 0.1% SDS, pH 7.4) containing protease inhibitor cocktail and phosphatase inhibitor cocktails 2 and 3 (Sigma-Aldrich). The obtained total cell lysates were cleared by centrifugation (20 min at 14,000×g), diluted with 2×SDS sample loading buffer and boiled. SDS-polyacrylamide gel electrophoresis was conducted using a standard protocol with equal amounts of total protein (10 or 20 μg) loaded per each lane. The separated proteins were transferred to nitrocellulose membranes and the membranes were blocked with 5% non-fat milk. […]

T84 cell monolayers [4] = experiment: Cytokine (TNFα/IFNγ)-induced disruption of the epithelial barrier (TEER, FITC-dextran flux); settings: 10 μM pretreatment 24 h, then TNFα 10 ng/ml + IFNγ 50 ng/ml, 48 h
Procedure: (§5) Confluent T84 cell monolayers were pretreated with either vehicle, or ECU (10 μM) for 24 h. Afterwards, cells were exposed to a combination of TNFα (10 ng/ml) and IFNγ (50 ng/ml) with and without ECU. (A) TEER was measured at the indicated times. (B) FITC-dextran flux was examined after 48 h incubation with cytokines. Data is presented as mean ±SE (n=3); ***P<0.001.
as §5, with “ML327” for “ECU”, “hours.” for “h.”, “ML327.” for “ECU.”, “(n=3); **P<0.05,” for “(n=3);”
as §3
A combination of two cytokines were selected: tumor necrosis factor alpha (TNFα, 10 ng/ml) and interferon-gamma (IFNγ, 50 ng/ml), which are known to compromise barrier integrity and trigger apical junction disassembly in cultured epithelial cell monolayers and intestinal mucosa in mice. Indeed, 48 hour incubation of well-differentiated T84 cell monolayers with TNFα and IFNγ caused a dramatic decrease in TEER (FIGS. 3A, 4A) and increase in transepithelial dextran flux (FIGS. 3B, 4B), which indicates the increase in barrier permeability. […] Next, it was examined if ECU protects epithelial adherens junctions (AJ) and tight junctions (TJ) from cytokine-induced disassembly. Immunofluorescence labeling of a specific AJ marker, E-cadherin, and a TJ marker, ZO-1, was used to visualize structure of different junctional complexes. […]

[5] = rapid (within 24 h) and sustained (up to 96 h), vs vehicle (DMSO)
[6] = at the end of the drug exposure

## O=C(NCCCCc1ccncc1)c1cc(-c2ccco2)on1 [ECU]
T84 cell monolayers [1]; at the end of the drug exposure, T84
  Transepithelial flux of FITC-dextran: significantly inhibited FITC-dextran flux
T84 cell monolayers [1]; [5]
  Transepithelial electrical resistance (TEER): increase in TEER
SK-0015 cell monolayers; [6]
  Transepithelial flux of FITC-dextran: significantly inhibited FITC-dextran flux
SK-0015 cell monolayers; [5]
  Transepithelial electrical resistance (TEER): increase in TEER
[2]; [6]
  Transepithelial flux of FITC-dextran: significantly inhibited FITC-dextran flux
[2]; up to 96 h, vs vehicle (DMSO)
  Transepithelial electrical resistance (TEER): increase in TEER
T84 cell monolayers [3]
  Expression of signaling molecules (pro-migratory signaling): activation of pro-migratory signaling events
T84 cell monolayers [4]
  Cytokine-induced decrease in TEER: prevents cytokine-induced disruption; also recorded: markedly attenuated
  Cytokine-induced increase in transepithelial FITC-dextran flux: prevents cytokine-induced disruption; also recorded: markedly attenuated
